According to patent US20220330547A1, “INSECT REPELLENT” (Rilis Co., Ltd., priority 2019, published 2022):
“And” between values parts separate entries of the source, which are not always exact repeats. Equal entries are not always repeated. Where two headings read alike, the source gives them in different places.

Tests used:
[1] = oxidative modification of sample on filter paper, 40° C. for a week, measured by chromatography; type: physicochemical; conditions: for Variation (Oxidation) (%): decrease of area after 1 week at 40° C.; for Day of experiment (area): filter paper 1 g/m^2, measured on the day; for After 1 week (area): filter paper 1 g/m^2, sealed flask, 40° C., 150 rpm, a week
[2] = system: ticks; experiment: tick repellency test (petri dish) with filter paper heated at 150° C.; type: in vivo; conditions: 24 hours
Procedure: Subsequently, a relationship between the tick repellent effect resulting from a difference in oxidative modification rate and time was examined. In the test, mixed farnesyl acetone isomers, trans-farnesyl acetone, 2,4-DHAP and xanthoxyline were each dissolved to 1 g/m^2 in acetone, and each filter paper added thereto was heated at 150° C. only for 3 minutes, 5 minutes or 26 minutes. The filter paper not heated (hereinafter referred to as 150° C., 0 min) was also prepared.
Each filter paper was placed on the center of a petri dish with a diameter of 4 cm, and 0.05 g of an attractant sample was placed on the center of filter paper. The petri dish was placed on the center of another petri dish with a diameter of 9 cm, and about 10000 ticks were provided together with a medium to this another petri dish, which was left to stand for 24 hours. After that, ticks in the 4 cm petri dish were counted.
For the repellency rate, the proportion of the number of ticks which had not been attracted was calculated by the following formula using the number of ticks entering the petri dish on which only the attractant sample was placed, x (control), and contrarily the number of ticks entering the petri dish on which mixed farnesyl acetone isomers, trans-farnesyl acetone, 2,4-DHAP or xanthoxyline was placed, n.
Repellency rate={(x−n)/x} x 100 (%)
* a small number of entering ticks =high repellency rate
It should be noted that the heating time at 150° C. is not described in detail herein, but was converted by the following Arrhenius equation described in “Sumie Yoshioka, Stability of drugs and dosage forms, p. 142, 1995, Nankodo Co., Ltd.” as in Drug testing on Stability studies.
Arrhenius equation: k =A exp (-E/RT)
* Activation energy of stability studies E=22.1 kcal/mol.

[3] = 25° C.; cited from earlier work
[4] = system: ticks; conditions: 1 g/m^2, after 24 hours; for Mortality rate after correction (%): corrected by mortality rate without treatment
Procedure: Incidentally, a tick killing experiment was performed by a filter paper contact method to examine whether or not the insecticidal effect is contained in the repellent effect of 2,4-DHAP and xanthoxyline. In the experiment, ticks attracted to the untreated site in the repellent test by the petri-dish method were obtained on a filter paper by the sodium chloride floatation method, and living ticks were gently taken with a fine brush (one stroke). A 5 cm x 10 cm filter paper permeated with 1 g/m^2 of a sample was dried in air and shaped into a bag form. The taken ticks were put therein, and the opening thereof was closed with clips. After 24 hours, living ticks and dead ticks were measured.
In the tick killing test, 2,4-DHAP, xanthoxyline and DEET were compared. DEET is a compound used as a repellent for e.g. insects (anti-insect agent), and is also called N,N-diethyl-3-methylbenzamide or N,N-diethyl-m-toluamide.
In Table 3, the mortality rates (%) of 2,4-DHAP, xanthoxyline and DEET are values corrected by the mortality rate without treatment based on the mortality rate without treatment.

[5] = system: ticks; conditions: maintained over 14 days; cited from earlier work
[6] = system: ticks; experiment: repellent effect of farnesyl acetone in an environment of 150° C. (background statement); type: in vivo
Procedure: For example, if there is a heat treatment step in the step of the anti-tick treatment, because oxidation reactivity due to heat is high, the repellent effect is already reduced to 30% or less after about 3 minutes in an environment of 150° C., and the repellent effect is reduced to 0% by at most 60 minutes. That is to say, it is troublesome to subject living materials of interest to the anti-tick treatment.

[7] = 1 g/m^2, 150° C. 0 min (not heated)
[8] = 1 g/m^2, 150° C. 3 min (corresponding to 25° C., about 4 months)
[9] = 1 g/m^2, 150° C. 5 min (corresponding to 25° C., about 7 months)
[10] = 1 g/m^2, 150° C. 26 min (corresponding to 25° C., about 3 years)

SMILES | Variation (Oxidation) (%) [1] | Day of experiment (area) [1] [area] | After 1 week (area) [1] [area] | Repellency rate [2, 7] [%] | Repellency rate [2, 8] [%] | Repellency rate [2, 9] [%] | Repellency rate [2, 10] [%] | transpiration properties [3] | Dead ticks ([4]; Average) | Living ticks ([4]; Average) | Mortality rate (%) ([4]; Average) | Living ticks ([4]; single run) | Mortality rate (%) ([4]; single run) | Mortality rate after correction (%) ([4]; single run) | also measured
CC(=O)CCC=C(C)CCC=C(C)CCC=C(C)C (mixture of isomers) [Mixed farnesyl acetone isomers, farnesyl acetone] | 67.10% | 3145831 | 1038335 | 90.60 | 94.90 | 24.60 | 17.60 |  |  |  |  |  |  |  | Variation (Oxidation) (%) ([1]; listed as mixed farnesyl acetone isomers): 67.10%; Repellency rate ([2]; 1 g/m^2, 150° C. 5 min (corresponding to 25° C., about 7 months), listed as mixed farnesyl acetone isomers): 30%; Repellency rate ([2]; 1 g/m^2, 150° C. 26 min (corresponding to 25° C., about 3 years), listed as mixed farnesyl acetone isomers): 17.6%
CC(=O)c1ccc(O)cc1O [2,4-DHAP, 2′,4′-dihydroxyacetophenone] | 7.4% and 7.46% | 12027833 | 11130386 | 39.80 | 37.40 |  |  | 6×10^-5 mmHg | 4 | 106 | 3.4 | 81 and 131 | 2.4% and 4.4% | 0.0% | 
CCN(CC)C(=O)c1cccc(C)c1 [DEET, N,N-diethyl-3-methylbenzamide, reference compound] |  |  |  |  |  |  |  |  | 62 | 2 | 96.2 |  | 100.0% and 92.3% | 100.0% and 91.5% | Mortality rate after correction (%) ([4]; Average): 95.8%
COc1cc(O)c(C(C)=O)c(OC)c1 [Xanthoxyline] | 2.42% | 5756751 | 5617299 | 92.40 | 97.40 | 95.80 | 93.00 | 1.5×10^-5 mmHg | 24 | 75 |  | 90 and 59 |  |  | Variation (Oxidation) (%) ([1]; listed as xanthoxyline): 2.42%; Repellency rate ([2]; 1 g/m^2, 150° C. 3 min (corresponding to 25° C., about 4 months), listed as xanthoxyline): ≥ 90%; Repellency rate ([2]; 1 g/m^2, 150° C. 5 min (corresponding to 25° C., about 7 months), listed as xanthoxyline): ≥ 90%; Dead ticks ([4]; single run): 26 and 22
CC(=O)CCC=C(C)CCC=C(C)CCC=C(C)C [farnesyl acetone] |  |  |  |  |  |  |  |  |  |  |  |  |  |  | repellent effect [5]: ≥ 95%; repellent effect ([6]; after about 3 minutes at 150° C.): ≤ 30%; repellent effect ([6]; by at most 60 minutes at 150° C.): 0%
CC(=O)CC/C=C(\C)CC/C=C(\C)CCC=C(C)C [trans-Farnesyl acetone] | 19.29% | 4022168 | 3246218 | 94.30 | 90.50 | 65.70 | 0.00 |  |  |  |  |  |  |  | Variation (Oxidation) (%) ([1]; listed as trans-farnesyl acetone): 19.29%; Repellency rate ([2]; 1 g/m^2, 150° C. 5 min (corresponding to 25° C., about 7 months), listed as trans-farnesyl acetone): below 65%
